# Legend:
# [1] = reported on PubChem; cited from earlier work
# [2] = system: caerulein-induced CP mice; assay: Antifibrotic efficacy of targeted delivery of apigenin in caerulein-induced CP mice (H&E, picrosirius red, fibronectin); format: in vivo, mouse (C57BL/6J); conditions: CP mice pancreas after 3-week treatment; free drug 2 mg/kg oral 6 days per week, liposomes 6 mg/kg i.v. twice per week
# Protocol: Apigenin treatments lasted for 3 weeks for the remaining 3 weeks of caerulein induction. […] Pancreata were perfused, harvested, and paraffin-embedded for immunohistochemistry staining. Livers were perfused, harvested, and partially paraffin-embedded for histology staining. […] Singh et al., 2012). […] The quantification of picrosirius red was determined by Image J, using threshold applied on the red composites of the RGB images. […] Fibronectin expression was quantified using the positive pixel count function on QuPath software (Bankhead et al., 2017). […] Serum alanine aminotransferase (ALT) and blood urea nitrogen (BUN) were determined on […] 8008 Chemistry Analyzer (IDEXX, Westbrook, Maine, United States of America). […] To test the antifibrotic efficacy of targeted liposomes, we evaluated the pharmacodynamics of apigenin in the free drug form, encapsulated in non-targeted liposomes and in ECM liposomes (FIG. 11A). ECM liposomes without drug loading were included in the study as vehicle control. C57BL/6J mice were injected with caerulein 14 days before treatment started to establish inflammation in the pancreas. […] FIGS. 11D and 11G). […] FIGS. 11C and 11F).
structure (smiles),measurement,setting,value
"O=c1cc(-c2ccc(O)cc2)oc2cc(O)cc(O)c12 [Apigenin, 4′,5,7-trihydroxyflavone]",Charge (ph 7.4),[1],0
same,Log P,[1],1.7
same,Water Solubility,[1],183 mg/mL
same,pKa1,[1],7.12
same,pKa2,[1],8.10
same,collagen deposition (Picrosirius red-positive area),[2],24.90 % area

# — US20240115729A1, “COMPOSITIONS AND METHODS FOR TARGETED ANTIFIBROTIC THERAPY IN CHRONIC PANCREATITIS” (University of Virginia Patent Foundation, priority 2021, published 2024)
